Experimental data: US20220364139A1, “METHODS FOR DETERMINING GROWTH AND RESPONSE” (PATAIGIN, LLC, priority 2019, published 2022)

Tested on: P. fluorescens strain that is susceptible to kanamycin
Test: Growth inhibition of P. fluorescens in 8% D2O, read from deuterated vs undeuterated membrane lipid ions by MALDI mass spectrometry
Format: cell-based, Pseudomonas fluorescens
Details: range of antibiotic concentrations, FIG. 2
Protocol: In FIG. 1 is shown eight MALDI mass spectra from about 680 to 730 m/z in negative ionization mode of membrane lipids extracted from a P. fluorescens strain that is susceptible to kanamycin. The aforementioned P. fluorescens strain was grown in seven environments containing Mueller-Hinton media and water containing 8% D2O, with each of the seven environments also having a concentration of kanamycin from 0 μg/mL to 200 μg/mL.
Extract samples using the method of embodiment 1b, as follows: skip optional step 2 of embodiment 1b; perform step 3 of embodiment 1b by drying the plate at 80° C. for about 5 min; perform step 4 of embodiment 1b by applying 1 μL of a solution of chloroform-methanol-water at a ratio by volume of 12:6:1, to which 10 mg/mL of beta-carboline has been added.
3. […]
In FIG. 1 can be seen multiple spectra for samples of a P. fluorescens strain that is susceptible to kanamycin, grown under different conditions, then extracted with a method of embodiment 1d and analyzed with a method of embodiment 2 using negative ionization mode. […]
In FIG. 2 can be seen a graph of the ratio of heavy/light LA ions from the spectra in FIG. 1, where light LA is measured as the intensity of the ion peak at 688.5 m/z and heavy LA is measured as the intensity of the ion peak at 692.5 m/z.

Compound: CC1(C)S[C@@H]2[C@H](NC(=O)C(C(=O)O)c3ccccc3)C(=O)N2[C@H]1C(=O)O (stereo partly shown) [carbenicillin]
- relationship between heavy/light ratio and antibiotic concentration: lowest at the highest antibiotic concentrations
